Columns and labels:
[1] = target: α2 kinase domain (α2-KD, residues 1–310) (Homo sapiens, UniProt P54646); assay: biochemical
[2] = target: T1, α2-KD (Homo sapiens, UniProt P54646); assay: Inactivation of α2-KD by PP2Cα; assay type: biochemical; conditions: 5 mM ATP, AMP 2 mM, SU6656 up to 10 μM
T1 construct: amplifying residues 1-310 with 5' BamH1 and 3' Xho1 sites; made in house; host or cells: bacteria
Procedure: Figure 5 SU6656 Promotes AMPK Activation by Binding to the Catalytic Site: Studies in Cell-Free Assays (A) Effect of increasing concentrations of SU6656 ± 1 mM AMP in the presence of 2 mM ATP on the activity of purified rat liver AMPK. (B) Effect of ATP concentration on kinase activity of α2-KD in the presence of increasing concentrations of SU6656. Results (mean, n = 2) were fitted to the equation Y= (Vmax × X)/(Km × (1 + I/Ki) + X), where Y is the activity, X is the ATP concentration, I is the concentration of SU6656, and Ki is the inhibitory constant for SU6656. The curves were generated using this equation with the best-fit values of Vmax, Km, and Ki (shared between all four curves) quoted in the main text. (C) Inhibition of phosphorylated α2-KD (WT or AT mutant) by SU6656. […] The reduced inhibition at 10 μM SU6656 may be due to the inhibitor coming out of solution, so those data were not used for curve fitting. (D and E) Effect of increasing concentrations of SU6656 on activity (D) and Thr172 phosphorylation (E) induced by LKB1 with unphosphorylated α2-KD (WT/AT mutant). Results in (D) are mean ± SEM (n = 3); and were fitted to same equation as Figure 4C. […] The complexes (which have low basal phosphorylation due to lack of LKB1 in HeLa cells) were incubated with or without a limiting amount of LKB1, AMP (200 μM) or SU6656 (3 μM) for 10 min and AMPK activity determined. […]

[3] = test system: AMPK; assay: AMPK activation in HeLa cells transfected with GFP-LKB1 WT, FF or FFF mutants; assay type: cell-based, human; conditions: HeLa cells expressing GFP-LKB1 WT, not with GFP control
Procedure: (§1) Top: AMPK activity (mean ± SEM, n = 4); bottom: western blots showing phosphorylation of Thr172 on AMPK, and of ERK1/2, in cells treated with DMSO (control), SU6656 (100 μM), or PP2 (100 nM) (n = 2). (B) As (A), but in SYF cells. (C) HeLa cells were transfected with DNAs encoding GFP alone, or GFP fused to WT, Y261F/Y365F (FF), or Y36F/Y261F/Y365F (FFF) mutants of LKB1; cells were treated with increasing concentrations of SU6656 for 1 hr and AMPK activity determined (mean ± SEM, n = 4). See also Figure S1. (D) HEK293 cells were transfected with DNAs encoding FLAG-tagged AMPK-α2 with or without a Y436F mutation. Cells were incubated with DMSO (control), 100 μM SU6656, 10 mM phenformin, or 10 μM A23187 for 1 hr; AMPK complexes were immunoprecipitated using anti-FLAG antibody and assayed. The top panels show kinase activities (mean ± SD, n = 3); the bottom panels show blots from the same experiment (n = 2). In all panels, asterisks indicate significant differences from DMSO controls; in (D), there were no significant differences between the WT and Y463F mutant. **p < 0.01, ****p < 0.0001.
We next transiently transfected DNAs encoding GFP, or GFP-tagged wild-type (WT), Y261F/Y365F (FF), or Y36F/Y261F/Y365F (FFF) mutants of LKB1 into HeLa cells, which lack endogenous LKB1.

[4] = target: human AMPK-α2 (WT) (Homo sapiens, UniProt P54646); assay: AMPK activity of FLAG-tagged WT AMPK-α2 expressed in HEK293 cells; assay type: cell-based; conditions: SU6656 100 μM, phenformin 10 mM, A23187 10 μM, 1 hr
Procedure: as §1

α2 kinase domain (α2-KD, residues 1–310), sequence (P54646 1-310): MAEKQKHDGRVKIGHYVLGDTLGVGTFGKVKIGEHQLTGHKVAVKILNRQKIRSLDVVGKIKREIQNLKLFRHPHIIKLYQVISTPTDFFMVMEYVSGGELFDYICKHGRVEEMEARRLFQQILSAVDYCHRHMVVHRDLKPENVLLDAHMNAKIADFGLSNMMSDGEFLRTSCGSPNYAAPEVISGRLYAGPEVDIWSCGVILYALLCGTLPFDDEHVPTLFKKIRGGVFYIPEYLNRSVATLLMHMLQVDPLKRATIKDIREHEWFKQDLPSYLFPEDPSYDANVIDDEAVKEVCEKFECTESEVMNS
T1 sequence (P54646 1-310): as above
human AMPK-α2 (WT), sequence (P54646 whole entry): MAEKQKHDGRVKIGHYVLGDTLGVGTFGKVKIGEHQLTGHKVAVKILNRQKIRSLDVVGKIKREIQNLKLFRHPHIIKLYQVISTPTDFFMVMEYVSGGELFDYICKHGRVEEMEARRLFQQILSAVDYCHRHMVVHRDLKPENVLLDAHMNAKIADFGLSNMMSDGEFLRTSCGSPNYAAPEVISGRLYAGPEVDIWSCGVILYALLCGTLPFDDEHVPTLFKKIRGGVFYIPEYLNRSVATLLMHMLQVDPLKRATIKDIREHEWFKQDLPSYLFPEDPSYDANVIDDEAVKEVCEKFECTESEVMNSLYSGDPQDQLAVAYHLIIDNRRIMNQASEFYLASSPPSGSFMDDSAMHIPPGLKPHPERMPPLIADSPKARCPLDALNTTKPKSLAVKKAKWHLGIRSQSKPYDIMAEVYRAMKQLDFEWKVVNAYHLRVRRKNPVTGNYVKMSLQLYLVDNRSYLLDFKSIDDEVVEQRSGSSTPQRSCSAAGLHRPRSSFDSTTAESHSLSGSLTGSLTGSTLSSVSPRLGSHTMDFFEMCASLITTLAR
human AMPK-α2 (WT), sequence (P54619 whole entry partner): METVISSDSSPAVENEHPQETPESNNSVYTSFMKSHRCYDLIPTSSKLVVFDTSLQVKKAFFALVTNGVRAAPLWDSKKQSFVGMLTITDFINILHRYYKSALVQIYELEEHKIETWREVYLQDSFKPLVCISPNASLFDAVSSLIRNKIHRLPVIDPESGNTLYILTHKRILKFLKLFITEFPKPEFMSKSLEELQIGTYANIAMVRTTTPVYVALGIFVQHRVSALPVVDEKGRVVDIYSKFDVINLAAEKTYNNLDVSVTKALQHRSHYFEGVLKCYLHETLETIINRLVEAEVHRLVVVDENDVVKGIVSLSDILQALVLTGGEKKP

With CN(C)S(=O)(=O)c1ccc2c(c1)/C(=C/c1cc3c([nH]1)CCCC3)C(=O)N2 [SU6656] the IC50 [1] was 220 ± 20 nM, the Ki [1] was 170 nM and the “protection against inactivation by PP2Cα” value [2] was “did not protect against inactivation”. The “AMPK activation and Thr172 phosphorylation” value [3] was “equally in cells expressing the WT, FF, or FFF mutants” and the “AMPK activity in anti-FLAG immunoprecipitates” value [4] was “all activated AMPK”.

Reference: paper PMC5522529, “Mechanisms of Paradoxical Activation of AMPK by the Kinase Inhibitors SU6656 and Sorafenib” (Cell Chemical Biology, 2017)
